Columns and labels:
[1] = target: T1, myc-RIP1 binding to GST-cIAP2-BIR3 (Homo sapiens, UniProt Q13489); assay: RIP1 binding, GST pull-down from HEK293T lysates; details: various concentrations, overnight, 4°C
T1 construct: purified GST-fusion proteins (GST-cIAP1-BIR3 or GST-cIAP2-BIR3) were added; made in house; host or cells: GST fusion: bacteria (as for the other recombinant proteins); myc-RIP1: transfected HEK293T cell lysate
Experimental: (§1) To assess the impact of compounds on cIAP1 and cIAP2 binding to RIP1, 700,000 HEK293T cells were seeded into 100 mm cell-culture plates and transfected the next day with 6 μg of plasmid DNA, myc-RIP1 in pRK5 vector. […] Lysates from 6 plates were pooled and divided into equal 300 μL aliquots, into which 7 μg of purified GST-fusion proteins (GST-cIAP1-BIR3 or GST-cIAP2-BIR3) were added in the presence of various concentrations of SMAC mimetic compounds. The tubes were rocked overnight at 4°C, and the next day 20 μL of glutathione-Sepharose beads (GE Healthcare) was added to each tube and the tubes were rocked for an additional 2 h at 4°C. The GST-fusion proteins were recovered by centrifugation at 2,300 g for 30 sec, then washed 3-times in NP-40 lysis buffer. Finally, 20 μL of 2X Laemmli buffer was added and the samples were boiled, then fractionated by SDS-PAGE, followed by immunoblotting using anti-myc antibody (Roche) for detection of myc-RIP1 and anti-GST antibody (BD Biosciences, La Jolla, CA) for detection of GST-fusion proteins.

[2] = target: T2, myc-RIP1 binding to GST-cIAP1-BIR3 (Homo sapiens, UniProt Q13490); assay: RIP1 binding, GST pull-down from HEK293T lysates; details: various concentrations, overnight, 4°C
T2 construct: purified GST-fusion proteins (GST-cIAP1-BIR3 or GST-cIAP2-BIR3) were added; made in house; host or cells: GST fusion: bacteria (as for the other recombinant proteins); myc-RIP1: transfected HEK293T cell lysate
T2 sequence (Q13490 257-356 limits assumed): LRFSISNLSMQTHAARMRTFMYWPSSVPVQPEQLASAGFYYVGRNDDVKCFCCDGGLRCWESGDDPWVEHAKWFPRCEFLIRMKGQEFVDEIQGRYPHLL
Experimental: as §1

[3] = target: cIAP1-BIR3 (Homo sapiens, UniProt Q13490); assay: FP competition assay, displacement of SMAC-rhodamine; details: cIAP1 BIR3 Ki, 25 mM Hepes pH 7.5, 1 mM TCEP, 0.005% Tween 20, 20 nM SMAC-rhodamine, 40 mM β-glycerol phosphate, ~50 nM protein; Ki calculated from IC50
cIAP1-BIR3, sequence (Q13490 257-356): as the sequence (Q13490 257-356 limits assumed) above
Experimental: Solutions for assessing SMAC-rhodamine binding to various BIR domains were empirically optimized. […] For cIAP1-BIR3, the assay buffer was 25 mM Hepes [pH 7.5] containing 40 mM β-glycerol phosphate, 1 mM TCEP, and 0.005% Tween 20, typically with 20 nM SMAC-rhodamine. For cIAP1-BIR2, cIAP2-BIR2 and cIAP2-BIR3, assays were performed in 25 mM Hepes [pH 7.5] containing 1 mM TCEP and 0.005% Tween 20, typically with 20 nM SMAC-rhodamine.
For cIAP1-BIR2, assays were conducted using 25 mM Hepes [pH 7.5] containing 1 mM TCEP, 0.005% Tween 20, ~1 μM cIAP1-BIR2, and 20 nM SMAC-rhodamine. For cIAP1-BIR3, assays were performed using the same buffered solution, except 40 mM β-glycerol phosphate was added and the cIAP1-BIR3 concentration was reduced to 50 nM. For cIAP2-BIR2, assays included a buffer containing 25 mM Hepes [pH 7.5] containing 1 mM TCEP, 0.005% Tween 20, 1 μM cIAP2-BIR2, and 20 nM SMAC-rhodamine. […] IC50 values were determined with a nonlinear fit using Prism software. Ki values were determined from the IC50 values using an online program developed by Nikolovska-Coleska et al. [26].

[4] = system: PC-3 prostate cancer cells; assay: Cytotoxicity assay, sensitization to TNF (CellTiter-Glo); format: cell-based, human; set-up: key to TNF EC50: IN: EC50 too weak to be determined; details: PC-3 cells, 10 nM TNF, 24 h, cell viability; for EC50: read-out: TNF EC50
Experimental: (§2) Cellular cytotoxicity experiments were conducted in white 96-well flat bottom plates (Greiner Bio-One #655074). PC-3 prostate cancer cells were seeded into microtiter wells in 90 μL RPMI medium with 10% fetal calf serum and antibiotics at 5,000 cells per well, and then incubated overnight at 37°C with 5% CO2/95% air. The next day, compounds diluted into the same culture medium and added in 10 μL aliquots to achieve various final concentrations, maintaining a uniform total volume per well. Either TNF (at 10 nM final) or LT-α (at ~90 pM final) resuspended in 10 μL of RPMI with 10% fetal calf serum and antibiotics was added to wells or an equal volume of medium was applied for the control well. The plates were then further incubated for 24 h. Subsequently, cell viability was assessed by the addition of 25 μL per well of Cell-Titer-Glo reagent (Promega, Inc). Plates were read using a Luminoskan Ascent luminometer.
(§3) The cellular activity of cIAP1 and cIAP2 inhibitors was evaluated through experiments where cytotoxicity of a human prostate tumor cell line (PC-3) was assessed in the presence or absence of cytokines TNF and LT-α. The experimental approach we used was to provide TNF or LT-α at a fixed concentration, which by itself was non-cytotoxic, then titrate SMAC mimetics into the cell cultures. […] The compound series described in this work has been tested against a broad range of cell lines (data not shown and [23]) and single agent toxicity was only observed for SKOV3 ovarian tumor cells. This agrees with the findings of Varfolomeev, Vince and Lalaoui, respectively.

[5] = system: PC-3 prostate cancer cells; assay: Cytotoxicity assay, sensitization to LT-α (CellTiter-Glo); format: cell-based, human; set-up: key to LT-α EC50: IN: EC50 too weak to be determined; details: PC-3 cells, ~90 pM LT-α, 24 h, cell viability; for EC50: read-out: LT-α EC50
Experimental: as §2, §3

[6] = target: T3, cIAP1 protein in MDA-MB-231 cells (Homo sapiens, UniProt Q13490); assay: Immunoblotting of cIAP1 protein levels in cells; format: cell-based; details: 5 μM, 6 h, immunoblot
T3 construct: MDA-MB-231 cells contain abundant levels of cIAP1 protein but little cIAP2 protein; endogenous in cells; host or cells: MDA-MB-231
T3 sequence (Q13490 whole entry): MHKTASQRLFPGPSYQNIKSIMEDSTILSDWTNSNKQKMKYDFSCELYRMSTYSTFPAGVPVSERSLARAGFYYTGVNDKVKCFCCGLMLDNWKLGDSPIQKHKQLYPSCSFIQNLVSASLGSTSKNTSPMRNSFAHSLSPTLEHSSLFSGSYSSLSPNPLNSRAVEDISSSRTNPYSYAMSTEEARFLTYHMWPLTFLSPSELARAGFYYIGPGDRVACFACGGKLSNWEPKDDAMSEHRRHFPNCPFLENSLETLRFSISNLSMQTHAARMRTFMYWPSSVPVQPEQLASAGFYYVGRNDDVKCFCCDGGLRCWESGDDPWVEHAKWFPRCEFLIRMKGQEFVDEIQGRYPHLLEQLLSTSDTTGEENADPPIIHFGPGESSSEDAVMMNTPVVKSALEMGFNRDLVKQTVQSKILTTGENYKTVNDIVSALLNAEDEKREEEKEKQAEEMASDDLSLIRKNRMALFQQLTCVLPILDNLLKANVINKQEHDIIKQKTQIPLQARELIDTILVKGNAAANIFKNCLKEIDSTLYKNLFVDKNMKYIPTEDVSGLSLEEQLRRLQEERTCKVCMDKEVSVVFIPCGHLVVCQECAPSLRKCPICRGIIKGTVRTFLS
Experimental: To assess the impact of compounds on cIAP1 protein levels in cells, 40,000 MDA-MB-231 cells were cultured in complete medium (RPMI with 10% fetal calf serum and antibiotics) overnight at 37°C in 5% CO2/95% air. The following day compounds at 5 μM (or an equivalent volume of diluent control) were added. After 6 h, cells were recovered by centrifugation, lysed in SDS-sample buffer, and equivolume aliquots of lysates were analyzed by SDS-PAGE/Immunoblotting using antibodies specific for human/mouse cIAP (pan) Mab (clone 315301; R&D Systems #MAB3400) and β-actin (Sigma-Aldrich #A5441) by an enhanced chemiluminescence (ECL) method, essentially as described.

T1 sequence (Q13489 243-333 limits assumed): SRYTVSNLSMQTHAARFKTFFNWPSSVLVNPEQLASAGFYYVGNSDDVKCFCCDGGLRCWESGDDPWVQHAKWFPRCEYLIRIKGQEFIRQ

With `CN[C@@H](C)C(=O)N[C@H](C(=O)N1CCC[C@@H]1C(=O)N[C@H]1CCOc2ccccc21)C(C)C` [compound 37, reference compound] the “inhibition of myc-RIP1 binding to GST-cIAP2-BIR3” value (from here on “inhibition … to GST-cIAP2-BIR3”) [1] was “inhibited binding”, the “inhibition of myc-RIP1 binding to GST-cIAP1-BIR3” value (shortened to “inhibition … to GST-cIAP1-BIR3”) [2] was “inhibited binding” and the Ki [3] was 20 nM. The EC50 [4] was 30 nM and the EC50 [5] was 10 nM.

In the case of `CN[C@@H](C)C(=O)N[C@H](C(=O)N1CSC[C@@H]1C(=O)NC1CCCc2ccccc21)C(C)C` (some centres unmarked) [compound 38, reference compound], the “effect on cIAP1 protein levels in cells” value [6] is reported as “caused reductions of cIAP1 protein levels in cells”, the “inhibition … to GST-cIAP2-BIR3” value [1] is reported as “inhibited binding” and the “inhibition … to GST-cIAP1-BIR3” value [2] is reported as “inhibited binding”. It also gave a Ki [3] of 30 nM, an EC50 [4] of 60 nM and an EC50 [5] of 20 nM.

`CN[C@@H](C)C(=O)N[C@@H](C(=O)N1CCC[C@@H]1C(=O)NNc1cccc(F)c1)C1CCCCC1` [compound 40, reference compound] was tested, and the “effect on cIAP1 protein levels in cells” value [6] was “did not”, the “inhibition … to GST-cIAP2-BIR3” value [1] was “did not” and the “inhibition … to GST-cIAP1-BIR3” value [2] was “did not”. The Ki [3] was greater than 92400 nM, the “TNF EC50” value [4] was “IN^b” and the “LT-α EC50” value [5] was “IN^b”.

— article PMC5019375, “Characterization of Potent SMAC Mimetics that Sensitize Cancer Cells to TNF Family-Induced Apoptosis” (PLoS ONE, 2016)
